Experimental data published in PMC12292521, “Discovery of a Potent Antimicrobial Peptide Through Rational Design: A New Frontier in Pathogen Control” (Biomolecules, 2025).
Peptide text beside a SMILES is read from it.

Settings: 100 µM peptide, 37 °C, 24 h, RP-HPLC C18, absorbance 280 nm, peak area vs time 0, three independent studies
Description: A total of 3.7 mg of peptide was dissolved in 1 mL of Milli-Q H2O to obtain a 2 mM stock solution. A 5% solution of Newborn Calf Serum (NCS) was prepared in Dulbecco’s phosphate-buffered saline (DPBS) (v/v) and then subjected to heat-inactivation by incubating the solution at 57 °C for 45 min (Hi-NCS). Therefore, 100 µM of peptide was incubated in 5% Hi-NCS at 37 °C for 24 h in DPBS. […] Therefore, the samples were centrifuged at 13,000 rpm for 5 min, and the supernatants were diluted in an equal volume of water. Finally, 200 µL of the collected solutions were loaded onto a μBondapak reversed-phase C18 column (Waters, 3.9 mm × 300 mm) connected to an HPLC system (Shimadzu, Milan, Italy), using a linear gradient of acetonitrile (5–95%) in water containing 0.1% TFA at a flow rate of 1 mL/min, and absorbance was detected at 280 nm. […] Samples containing only Hi-NCS were also analyzed. The same experiments were performed in the presence of NCS, not subjected to the heat inactivation treatment. Results are the average of three independent studies.

SMILES: CC[C@H](C)[C@H](NC(=O)[C@H](Cc1c[nH]c2ccccc12)NC(=O)[C@H](CCCCN)NC(=O)[C@@H](N)CCCNC(=N)N)C(=O)N[C@@H](CC(C)C)C(=O)N[C@@H](CCCCN)C(=O)N[C@@H](Cc1c[nH]c2ccccc12)C(=O)N[C@@H](CC(C)C)C(=O)N[C@@H](CCCNC(=N)N)C(=O)N[C@H](C(=O)N[C@@H](Cc1c[nH]c2ccccc12)C(=O)N[C@@H](CCCCN)C(=O)N[C@@H](CCCCN)C(N)=O)[C@@H](C)O [RKW] (H-RKWILKWLRTWKK-NH2; N-terminus assumed)
- Stability of RKW in heat-inactivated serum (Hi-NCS) (5% Hi-NCS (57 °C, 45 min) in DPBS): no peptide breakage
- Stability of RKW in serum, not heat-inactivated (NCS) (5% NCS in DPBS): complete degradation pattern
